Series [1] has as its target T1, triton-extracted alpha-synuclein from PD Tissue (Homo sapiens, UniProt P37840).
T1 construct: tissue Analytic Biological Services Inc; host or cells: human PD temporal cortex grey matter, Triton X-100 insoluble pellet
In words: Alpha-synuclein tissue homogenate binding assay (Assay 1), displacement of [^3H]-1000. The settings on record: for Selectivity ratio (Assay 2/Assay 1): Aβ Tissue Ki / α-synuclein Tissue Ki; for Ki: read-out: α-synuclein Tissue Ki (Assay 1).

Series [2] addresses aggregated beta amyloid in AD tissue (Homo sapiens, UniProt P05067). Kind of series: Competitive radioligand binding to pathological aggregated beta amyloid in AD tissue (Assay 2), displacement of [^3H]-105. Conditions: Aβ-rich AD frontal cortex homogenate, [^3H]-105, Kd 11.0 nM.
Series [3] in a line: [^11C]-2 PET imaging in rhesus monkey. It is filed as in vivo. The settings on record: IV, averaged over 30-90 minutes post injection. Here is the method: A fasted rhesus monkey (7-11 kg) is anesthetized with ketamine I.M. (15 mpk) and the monkey is placed in the PET camera bed. An I.V, catheter is inserted into the right saphenous vein. For arterial sampling, the right femoral area is aseptically prepared and an arterial catheter is placed and fixed with sutures.
Subsequent anesthesia is maintained with Propofol. Induction dose is 5 mg/kg I.V., followed by an infusion at 0.4-0.6 mg/kg/min for the duration of the scanning procedure. The animal is intubated and positioned inside the camera gantry supine, head first. Animal is maintained on ventilated medical grade air:oxygen gas mixture at approximately 23 respirations per minute for the duration of the study. Ventilation I:E ratio, volume and rate of respiration is adjusted to maintain CO2 levels about 40 mmHg and SpO2 levels 95 to 100%. A temperature probe, pulse oximeter, non-invasive blood pressure cuff, and end tidal CO2 monitor are connected. […]
Whole blood samples are collected via arterial catheter into Heparin tubes for determination of radioactivity in whole blood and plasma. Samples are centrifuged and 20 μl whole blood and plasma are counted 20, 40, 80, 100, 120, and 150 seconds post PET ligand injection. Samples of blood (0.8 ml) are taken for metabolite correction and determination of radioactivity in plasma and whole blood at 3, 5, 15, 30, 60, and 90 minutes. […]

[4] abbreviates: insoluble fraction of PD brain homogenate, [^3H]-1000 3.0 nM, Kd 0.90 nM.

Read-outs that look alike come from different tables or passages of the source.

Chain of aggregated beta amyloid in AD tissue (P05067 672-711 limits assumed): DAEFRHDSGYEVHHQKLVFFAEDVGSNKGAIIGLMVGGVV

Regarding `COC[C@H]1CN(c2cc3cnccn3c2)CCN1c1ncc(/C=C/c2ccc(-n3cccn3)nc2)cn1` [Example 21, (R,E)-7-(4-(5-(2-(6-(1H-pyrazol-1-yl)pyridin-3-yl)vinyl)pyrimidin-2-yl)-3-(methoxymethyl)piperazin-1-yl)pyrrolo[1,2-a]pyrazine], the “Selectivity ratio (Assay 2/Assay 1)” value in series [1] came out at 10000. Further, the Ki is 1.3 nM in series [1] and 13000 nM in series [2].
In the case of `COC[C@H]1CN(c2ncc(/C=C/c3ccc(-n4ccnc4)nc3)cn2)CCN1c1ccnc(F)n1` [Example 34, (R,E)-4-(4-(5-(2-(6-(1H-imidazol-1-yl)pyridin-3-yl)vinyl)pyrimidin-2-yl)-2-(methoxymethyl)piperazin-1-yl)-2-fluoropyrimidine], in series [1], the “Selectivity ratio (Assay 2/Assay 1)” value turned out to be 6667. In addition, the values for the Ki in series [1] (setting [4]) and in series [2] were 1.8 nM and at least 12000 nM, respectively.
The matching figures for `COC[C@H]1CN(c2ncc(C#Cc3ccc(-c4cnco4)nc3)cn2)CCN1c1ncc(OCCF)cn1` [Example 66, (R)-5-(5-((2-(4-(5-(2-fluoroethoxy)pyrimidin-2-yl)-3-(methoxymethyl)piperazin-1-yl)pyrimidin-5-yl)ethynyl)pyridin-2-yl)oxazole]: 706, 1.7 nM and at least 1200 nM.
As to `COC[C@H]1CN(c2ccc(F)nc2)CCN1c1ncc(/C=C/c2ccc(-n3ccnc3)nc2)cn1` [Example 32, (R,E)-5-(2-(6-(1H-imidazol-1-yl)pyridin-3-yl)vinyl)-2-(4-(6-fluoropyridin-3-yl)-2-(methoxymethyl)piperazin-1-yl)pyrimidine], the “Selectivity ratio (Assay 2/Assay 1)” value in series [1] is 13333. Also, the Ki in series [1] (setting [4]) was 0.9 nM; in series [2] it was at least 12000 nM.
As for `COC[C@H]1CN(c2ccccn2)CCN1c1ncc(/C=C/c2ccc(-c3cnco3)nc2)cn1` [Example 26, (R,E)-5-(5-(2-(2-(2-(methoxymethyl)-4-(pyridin-2-yl)piperazin-1-yl)pyrimidin-5-yl)vinyl)pyridin-2-yl)oxazole], the “Selectivity ratio (Assay 2/Assay 1)” value in series [1] came to 3871. Besides, the Ki in series [1] (setting [4]) is 3.1 nM; in series [2], at least 12000 nM.
The matching figures for `COC[C@H]1CN(c2ccccn2)CCN1c1ncc(/C=C/c2cnc3nc(C)cn3c2)cn1` [Example 19, (R,E)-6-(2-(2-(2-(methoxymethyl)-4-(pyridin-2-yl)piperazin-1-yl)pyrimidin-5-yl)vinyl)-2-methylimidazo[1,2-a]pyrimidine]: 8571, 1.4 nM and at least 12000 nM.
The matching figures for `COC[C@H]1CN(c2ccccn2)CCN1c1ncc(/C=C/c2ccc(-n3ccnc3)nc2)cn1` [Example 18, (R,E)-5-(2-(6-(1H-imidazol-1-yl)pyridin-3-yl)vinyl)-2-(2-(methoxymethyl)-4-(pyridin-2-yl)piperazin-1-yl)pyrimidine]: 24000, 0.5 nM and at least 12000 nM.
Turning to `FCCOC[C@H]1CN(c2ncc(C#Cc3ccc(N4CCn5cnnc5C4)nc3)cn2)CCN1c1ncncn1` [Example 75, (R)-7-(5-((2-(3-((2-fluoroethoxy)methyl)-4-(1,3,5-triazin-2-yl)piperazin-1-yl)pyrimidin-5-yl)ethynyl)pyridin-2-yl)-5,6,7,8-tetrahydro-[1,2,4]triazolo[4,3-a]pyrazine], the “Selectivity ratio (Assay 2/Assay 1)” value in series [1] amounted to 1312. Besides, the results for the Ki in series [1] (setting [4]) and in series [2] were 0.915 nM and at least 1200 nM, respectively.
The matching figures for `COC[C@H]1CN(c2cc(Cl)ncn2)CCN1c1ncc(/C=C/c2ccc(-n3ccnc3)nc2)cn1` [Example 14, (R,E)-5-(2-(6-(1H-imidazol-1-yl)pyridin-3-yl)vinyl)-2-(4-(6-chloropyrimidin-4-yl)-2-(methoxymethyl)piperazin-1-yl)pyrimidine]: 9231, 1.3 nM and at least 12000 nM.
On to `[11CH3]OC[C@H]1CN(c2ncc(/C=C/c3ccc(-n4ccnc4)nc3)cn2)CCN1c1ncccn1` [[^11C]-2], for which the “distribution in monkey brain (PET image)” value in series [3] is “suitable distribution”.
Consider `COC[C@H]1CN(c2cc(F)ncn2)CCN1c1ncc(/C=C/c2ccc(-n3ccnc3)nc2)cn1` [Example 13, (R,E)-5-(2-(6-(1H-imidazol-1-yl)pyridin-3-yl)vinyl)-2-(4-(6-fluoropyrimidin-4-yl)-2-(methoxymethyl)piperazin-1-yl)pyrimidine], for which the “Selectivity ratio (Assay 2/Assay 1)” value in series [1] stood at 12000. In addition, the Ki was 1 nM in series [1] (setting [4]) and at least 12000 nM in series [2].
The matching figures for `FCCOC[C@H]1CN(c2ncc(C#Cc3ccc(-n4cnnc4)nc3)cn2)CCN1c1ncccn1` [Example 71, (R)-5-((6-(4H-1,2,4-triazol-4-yl)pyridin-3-yl)ethynyl)-2-(3-((2-fluoroethoxy)methyl)-4-(pyrimidin-2-yl)piperazin-1-yl)pyrimidine]: 293, 4.09 nM and at least 1200 nM.
Regarding `Cn1cc(-c2ncc(C#Cc3cnc(N4CCN(c5ncncn5)[C@@H](COCCOCCF)C4)nc3)cn2)cn1` [Example 78, (R)-2-(2-((2-(2-fluoroethoxy)ethoxy)methyl)-4-(5-((2-(1-methyl-1H-pyrazol-4-yl)pyrimidin-5-yl)ethynyl)pyrimidin-2-yl)piperazin-1-yl)-1,3,5-triazine], the “Selectivity ratio (Assay 2/Assay 1)” value in series [1] was 753. In addition, the Ki is 1.59 nM in series [1] (setting [4]) and at least 1200 nM in series [2].
The matching figures for `COCCOC[C@H]1CN(c2ccccn2)CCN1c1ncc(/C=C/c2ccc(-n3ccnc3)nc2)cn1` [Example 6, (R,E)-5-(2-(6-(1H-imidazol-1-yl)pyridin-3-yl)vinyl)-2-(2-((2-methoxyethoxy)methyl)-4-(pyridin-2-yl)piperazin-1-yl)pyrimidine]: 100, 1.8 nM and 180 nM.
The matching figures for `COC[C@H]1CN(c2ccccn2)CCN1c1ncc(/C=C/c2ccc(-n3cnnc3)nc2)cn1` [Example 5, (R,E)-5-(2-(6-(4H-1,2,4-triazol-4-yl)pyridin-3-yl)vinyl)-2-(2-(methoxymethyl)-4-(pyridin-2-yl)piperazin-1-yl)pyrimidine]: 7500, 1.6 nM and at least 12000 nM.
The matching figures for `COC[C@H]1CN(c2ncc(/C=C/c3ccc(-n4ccnc4)nc3)cn2)CCN1c1ccccn1` [Example 22, (R,E)-5-(2-(6-(1H-imidazol-1-yl)pyridin-3-yl)vinyl)-2-(3-(methoxymethyl)-4-(pyridin-2-yl)piperazin-1-yl)pyrimidine]: 1857, 0.7 nM and 1300 nM.
Consider `OC[C@H]1CN(c2ccc(F)nc2)CCN1c1ncc(/C=C/c2ccc(-n3ccnc3)nc2)cn1` [Example 33, (R,E)-(1-(5-(2-(6-(1H-imidazol-1-yl)pyridin-3-yl)vinyl)pyrimidin-2-yl)-4-(6-fluoropyridin-3-yl)piperazin-2-yl)methanol], for which, in series [1], the “Selectivity ratio (Assay 2/Assay 1)” value is given as 6667 and the Ki worked out at 1.8 nM. The Ki in series [2] was at least 12000 nM.
